Reference: the supplement of paper PMC11451515

Tested on: SEM cells
Assay: cell viability relative to DMSO control; higher = less cytotoxic
Conditions: 48 h
In short: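 Viability is expressed as a percentage of DMSO wells within each plate, and cell-free wells serve as background. Seeding densities in the 1536-well plates (5 μl) were 500 cells/well for NOMO1 or SEM leukemia cells and 1000 cells/well for P12-Ichikawa. Each line was adapted for at least four passages in each medium. Library compounds in DMSO were pin-dosed at 47 μM to 0.79 nM (11 points, threefold), and CellTiter-Glo One luminescence was read after 48 h at 37°C.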

[1] = RPMI 5 mM glucose + 10% FBS, 0.000781 µM
[2] = RPMI 5 mM glucose + 10% FBS, 0.00234 µM
[3] = RPMI 5 mM glucose + 10% FBS, 0.00702 µM
[4] = RPMI 5 mM glucose + 10% FBS, 0.0211 µM
[5] = RPMI 5 mM glucose + 10% FBS, 0.0632 µM
[6] = RPMI 5 mM glucose + 10% FBS, 0.19 µM
[7] = RPMI 5 mM glucose + 10% FBS, 0.569 µM
[8] = RPMI 5 mM glucose + 10% FBS, 1.71 µM
[9] = RPMI 5 mM glucose + 10% FBS, 5.12 µM
[10] = RPMI 5 mM glucose + 10% FBS, 15.4 µM
[11] = RPMI 5 mM glucose + 10% FBS, 46.1 µM
[12] = RPMI 5 mM glucose + 10% dialyzed FBS, 0.000781 µM
[13] = RPMI 5 mM glucose + 10% dialyzed FBS, 0.00234 µM
[14] = RPMI 5 mM glucose + 10% dialyzed FBS, 0.00702 µM
[15] = RPMI 5 mM glucose + 10% dialyzed FBS, 0.0211 µM
[16] = RPMI 5 mM glucose + 10% dialyzed FBS, 0.0632 µM
[17] = RPMI 5 mM glucose + 10% dialyzed FBS, 0.19 µM
[18] = RPMI 5 mM glucose + 10% dialyzed FBS, 0.569 µM
[19] = RPMI 5 mM glucose + 10% dialyzed FBS, 1.71 µM
[20] = RPMI 5 mM glucose + 10% dialyzed FBS, 5.12 µM
[21] = RPMI 5 mM glucose + 10% dialyzed FBS, 15.4 µM
[22] = RPMI 5 mM glucose + 10% dialyzed FBS, 46.1 µM
[23] = HPLM + 10% dialyzed FBS, 0.000781 µM
[24] = HPLM + 10% dialyzed FBS, 0.00234 µM
[25] = HPLM + 10% dialyzed FBS, 0.00702 µM
[26] = HPLM + 10% dialyzed FBS, 0.0211 µM
[27] = HPLM + 10% dialyzed FBS, 0.0632 µM
[28] = HPLM + 10% dialyzed FBS, 0.19 µM
[29] = HPLM + 10% dialyzed FBS, 0.569 µM
[30] = HPLM + 10% dialyzed FBS, 1.71 µM
[31] = HPLM + 10% dialyzed FBS, 5.12 µM
[32] = HPLM + 10% dialyzed FBS, 15.4 µM
[33] = HPLM + 10% dialyzed FBS, 46.1 µM

Structure (SMILES) | cell viability [1] [%] | cell viability [2] [%] | cell viability [3] [%] | cell viability [4] [%] | cell viability [5] [%] | cell viability [6] [%] | cell viability [7] [%] | cell viability [8] [%] | cell viability [9] [%] | cell viability [10] [%] | cell viability [11] [%] | cell viability [12] [%] | cell viability [13] [%] | cell viability [14] [%] | cell viability [15] [%] | cell viability [16] [%] | cell viability [17] [%] | cell viability [18] [%] | cell viability [19] [%] | cell viability [20] [%] | cell viability [21] [%] | cell viability [22] [%] | cell viability [23] [%] | cell viability [24] [%] | cell viability [25] [%] | cell viability [26] [%] | cell viability [27] [%] | cell viability [28] [%] | cell viability [29] [%] | cell viability [30] [%] | cell viability [31] [%] | cell viability [32] [%] | cell viability [33] [%]
CC(C)[C@H](C(=O)Nc1ccc(C(=O)NO)cc1)c1ccccc1 | 115 | 116 | 126 | 140 | 139 | 148 | 133 | 74.7 | 11.3 | 9.31 | 9.34 | 105 | 101 | 121 | 121 | 120 | 120 | 111 | 56.6 | 8.81 | 8.39 | 8.47 | – | – | – | – | – | – | – | – | – | – | –
CCOc1ccccc1N/N=C1/C(=O)N(c2nc(-c3ccccc3)cs2)N=C1C | 103 | 114 | 102 | 116 | 144 | 110 | 111 | 70.7 | 70 | 9.65 | 2.74 | 114 | 106 | 101 | 115 | 106 | 97.4 | 81.7 | 77.1 | 59.4 | 9.71 | 3.01 | 124 | 114 | 93 | 122 | 105 | 99.2 | 100 | 86.4 | 45.9 | 8.56 | 3.58
c1coc(CNc2ncnc3nc[nH]c23)c1 | 110 | 120 | 116 | 121 | 124 | 110 | 119 | 120 | 143 | 119 | 105 | 105 | 115 | 106 | 114 | 111 | 114 | 97.4 | 109 | 115 | 119 | 96.1 | 112 | 101 | 112 | 103 | 116 | 118 | 123 | 110 | 130 | 127 | 103
C/C1=C/C(=C(/CNC(=O)C2=CC(=CC3=C2C=N[N]3C4CCCC4)C5=CC=C(CN6CCOCC6)C=C5)C(=O)N1)C | 97.8 | 103 | 116 | 18.1 | 106 | 96.5 | 83.4 | 93.2 | 92 | 67.5 | 4.27 | 116 | 124 | 132 | 22.7 | 130 | 122 | 118 | 129 | 128 | 126 | 6.82 | 113 | 122 | 126 | 23.4 | 117 | 127 | 115 | 115 | 113 | 106 | 7.3
CCOc1cc(C(=O)Nc2ccc(Cl)c(-c3nc4ccccc4[nH]3)c2)cc(OCC)c1OCC | 76.8 | 74.7 | 93.6 | 92.7 | 94.2 | 94.4 | 109 | 94.5 | 93.5 | 9.91 | 48.1 | 73.9 | 77.1 | 91.8 | 95.4 | 85.6 | 93.5 | 92.6 | 86.6 | 77.7 | 16.8 | 46.1 | 70.1 | 76 | 91.4 | 92.8 | 92 | 87.5 | 89.3 | 91 | 85.2 | 17.4 | 62.4
CCCCCN(C)CCC(O)(P(=O)([O-])O)P(=O)(O)O | 74.5 | 88.1 | 84.1 | 90.4 | 75.5 | 100 | 98.3 | 16.9 | 77.5 | 107 | 73.3 | 70 | 85.4 | 69 | 95.7 | 71.5 | 87.9 | 83.2 | 17.4 | 86.4 | 102 | 78.4 | 57.1 | 71.9 | 72.8 | 85.3 | 71.8 | 91.8 | 88.3 | 21.9 | 82.8 | 104 | 75.2
OC[C@H]1OC(O)C[C@@H](O)[C@@H]1O (stereo partly specified) | 95.6 | 26.8 | 118 | 116 | 114 | 115 | 118 | 125 | 109 | 136 | 127 | 97.6 | 37.5 | 116 | 104 | 118 | 113 | 120 | 120 | 109 | 116 | 119 | 83.6 | 32.6 | 104 | 99.5 | 92.4 | 96 | 92.8 | 101 | 101 | 97.8 | 97.9
CC(C)[C@]12O[C@H]1[C@@H]3O[C@@]34[C@@]5(C)CC\C6=C(COC6=O)/[C@@H]5C[C@@H]7O[C@]47[C@@H]2O | 70.6 | 5.86 | 5.11 | 4.85 | 5.84 | 5.43 | 4.78 | 4.12 | 3.56 | 2.23 | 1.15 | 107 | 6.37 | 6.75 | 6.32 | 7.36 | 7.3 | 6.55 | 6.33 | 4.78 | 3.05 | 2.21 | 88.8 | 8.24 | 7.05 | 7.2 | 8.43 | 7.98 | 7.67 | 7.16 | 5.34 | 3.24 | 2.08
c1cc2c(cc1[C@H]1OC[C@H]3[C@@H]1CO[C@@H]3c1ccc3c(c1)OCO3)OCO2 | 124 | 102 | 117 | 129 | 131 | 135 | 117 | 113 | 107 | 100 | 103 | 108 | 115 | 144 | 130 | 113 | 140 | 130 | 132 | 103 | 118 | 86.4 | 113 | 105 | 119 | 123 | 126 | 119 | 126 | 110 | 119 | 108 | 92.4
Cc1cccc(-c2[nH]c(C(C)(C)C)nc2-c2ccc3nccnc3c2)n1 | 95.9 | 85.8 | 89.7 | 95.9 | 91.2 | 81.1 | 89 | 67.9 | 82 | 64.9 | 6.89 | – | – | – | – | – | – | – | – | – | – | – | 121 | 121 | 120 | 131 | 123 | 125 | 124 | 121 | 117 | 97.7 | 11.1
Cc1cc(/C=c2/sc3nc4ccccc4n3c2=O)c(C)n1-c1ccccc1 | 117 | 119 | 113 | 137 | 117 | 122 | 130 | 128 | 125 | 125 | 118 | 117 | 110 | 99.1 | 121 | 128 | 122 | 108 | 118 | 111 | 113 | 116 | 115 | 121 | 93.5 | 122 | 112 | 128 | 125 | 108 | 128 | 110 | 101
CN(CC(=O)N(Cc1ccc(C2CCCCC2)cc1)c1ccc(C(=O)O)c(O)c1)[S+](=O)([O-])c1c(F)c(F)c(F)c(F)c1F | 80.8 | 104 | 90 | 93.1 | 88.9 | 101 | 103 | 97.8 | 77.4 | 54.8 | 6.03 | 87 | 91.1 | 93.1 | 89.2 | 103 | 101 | 84.5 | 91.3 | 80.3 | 66.6 | 19.9 | 83.5 | 94.7 | 104 | 95.8 | 103 | 93.7 | 92.7 | 97.7 | 84.8 | 86.5 | 31.1
Cn1cnc(N)c2ncnc1-2 | 90.9 | 99 | 92.9 | 87.1 | 87.8 | 99.5 | 87.2 | 63.6 | 14.7 | 4.31 | 3.65 | 108 | 109 | 115 | 84.9 | 112 | 98.6 | 118 | 82.6 | 24.8 | 5.27 | 4.09 | 80.5 | 96.4 | 111 | 103 | 109 | 88.9 | 112 | 80.3 | 32 | 5 | 4.54
C#CCC(Cc1cnc2nc(N)nc(N)c2n1)c1ccc(C(=O)N[C@@H](CCC(=O)O)C(=O)O)cc1 (stereo partly specified) | 113 | 122 | 120 | 118 | 90.6 | 73.3 | 74.1 | 71.9 | 66.7 | 68.1 | 68 | 105 | 114 | 110 | 107 | 27.4 | 23.5 | 24.3 | 23 | 20.3 | 22.9 | 22.3 | 110 | 113 | 114 | 119 | 47 | 48 | 39.2 | 36.3 | 31.9 | 38.1 | 35.1
CC(C)C[C@H](CC(=O)O)C(=O)N[C@@H](Cc1c[nH]c2ccccc12)C(=O)N[C@@H](C)c1ccccc1 | 96.1 | 112 | 125 | 116 | 110 | 122 | 8.87 | 86.2 | 96.9 | 65.9 | 54.3 | 77.7 | 90.4 | 97.3 | 113 | 89.6 | 87.2 | 8.39 | 79.4 | 90.2 | 53.7 | 46.4 | 96.1 | 100 | 119 | 113 | 106 | 105 | 7.87 | 92.1 | 112 | 73.1 | 54
CC(C)[C@H]1C(=O)N[C@H](CO)Cc2c[nH]c3cccc(c23)N1C | 83 | 74 | 91.9 | 114 | 99.1 | 78.3 | 92.3 | 74.2 | 47.9 | 50.2 | 61.3 | 89.7 | 90.8 | 99.7 | 114 | 102 | 80.6 | 104 | 104 | 67.1 | 74.1 | 88.4 | 82.3 | 78.3 | 90.7 | 105 | 114 | 75.6 | 85.6 | 78.9 | 57.9 | 64.7 | 76.6
